Laboratory results: ChEMBL document CHEMBL1201862, “PubChem BioAssay data set” (2004)
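48-hour exposure; five concentrations; linearly interpolated endpoints. Here, GI50 denotes the concentration required for 50% inhibition of growth.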 Active and inactive are the calls of the source. Rule as the data show it: active = GI50 up to about 1.1 µM and inactive = higher.

What was measured:
Assay in all cases: DTP human tumour cell line panel, 48 h
786-0 = system: 786-0
ACHN = system: ACHN
BT-549 = system: BT-549
DU-145 = system: DU-145
HL-60 = system: HL-60
HOP-62 = system: HOP-62
K562 = system: K562
MCF7 = system: MCF7
NCI-H226 = system: NCI-H226
NCI/ADR-RES = system: NCI/ADR-RES
OVCAR-3 = system: OVCAR-3
SF-539 = system: SF-539
SK-MEL-28 = system: SK-MEL-28
SK-MEL-2 = system: SK-MEL-2
SK-MEL-5 = system: SK-MEL-5
SN12C = system: SN12C
CCRF-CEM = system: CCRF-CEM
NCI-H522 = system: NCI-H522

Row | Structure (SMILES) | GI50 (786-0) | GI50 (ACHN) | GI50 (BT-549) | GI50 (DU-145) | GI50 (HL-60) | GI50 (HOP-62) | GI50 (K562) | GI50 (MCF7) | GI50 (NCI-H226) | GI50 (NCI/ADR-RES) | GI50 (OVCAR-3) | GI50 (SF-539) | GI50 (SK-MEL-28) | GI50 (SK-MEL-2) | GI50 (SK-MEL-5) | GI50 (SN12C) | GI50 (CCRF-CEM) | GI50 (NCI-H522)
1 | [O-][n+]1c(CN2CCCCC2)nc2cccc3c2c1-c1ccccc1-3 | 16.7 µM (inactive) | 18.6 µM (inactive) | 48.3 µM (inactive) | 17.9 µM (inactive) | > 100 µM (inactive) | 19.6 µM (inactive) | 77.6 µM (inactive) | 4.22 µM (inactive) | 16.9 µM (inactive) | 22.4 µM (inactive) | 21.6 µM (inactive) | 23.9 µM (inactive) | 68.5 µM (inactive) | 23 µM (inactive) | 16.1 µM (inactive) | 17.1 µM (inactive) |  | 
2 | O=C1/C(=C/c2ccc(Cl)cc2)CCC/C1=C\c1ccc(O)c(CN2CCCCC2)c1 | 15 µM (inactive) | 15.7 µM (inactive) | 11.2 µM (inactive) | 17.1 µM (inactive) | 2.13 µM (inactive) | 39 µM (inactive) | 9.29 µM (inactive) | 47.1 µM (inactive) | 16.1 µM (inactive) | 12.9 µM (inactive) | 24.1 µM (inactive) | 21.8 µM (inactive) | 21 µM (inactive) | 42.1 µM (inactive) | 15.1 µM (inactive) | 26.6 µM (inactive) | 6.01 µM (inactive) | 
3 | Cn1c(-c2ccccc2)cc(-c2cccs2)c1-c1ccsc1 | > 100 µM (inactive) | > 100 µM (inactive) | > 100 µM (inactive) | > 100 µM (inactive) | > 100 µM (inactive) | > 100 µM (inactive) | > 100 µM (inactive) | 47.4 µM (inactive) | > 100 µM (inactive) | > 100 µM (inactive) | > 100 µM (inactive) | > 100 µM (inactive) |  | > 100 µM (inactive) | > 100 µM (inactive) | > 100 µM (inactive) | > 100 µM (inactive) | 
4 | CC(C)(C)c1cc(C(CO)OCCOCCO)cc(C(C)(C)C)c1O (stereo unspecified) | > 100 µM (inactive) | > 100 µM (inactive) | > 100 µM (inactive) | > 100 µM (inactive) |  | > 100 µM (inactive) | > 100 µM (inactive) | > 100 µM (inactive) | > 100 µM (inactive) | > 100 µM (inactive) | > 100 µM (inactive) | > 100 µM (inactive) | > 100 µM (inactive) | > 100 µM (inactive) | > 100 µM (inactive) | > 100 µM (inactive) | > 100 µM (inactive) | > 100 µM (inactive)
5 | CNC(=O)Oc1ccc(-c2cn3cc(OC(=O)NC)ccc3n2)cc1 | 26.7 µM (inactive) | 29 µM (inactive) | > 100 µM (inactive) | 68.9 µM (inactive) |  | 80.4 µM (inactive) | 22.6 µM (inactive) | 32.4 µM (inactive) | > 100 µM (inactive) | 79.1 µM (inactive) | 67.8 µM (inactive) | 27.6 µM (inactive) | 92.7 µM (inactive) | > 100 µM (inactive) | 26.7 µM (inactive) | 42.8 µM (inactive) | 17.9 µM (inactive) | 
6 | N#CC12C(=O)N3C(=NC(c4ccco4)NC3c3ccco3)C1(C#N)C(c1ccco1)NC1=C2CCCC1 (stereo unspecified) | > 100 µM (inactive) | > 100 µM (inactive) | > 100 µM (inactive) | > 100 µM (inactive) | > 100 µM (inactive) | > 100 µM (inactive) | > 100 µM (inactive) | > 100 µM (inactive) | > 100 µM (inactive) | > 100 µM (inactive) |  |  | > 100 µM (inactive) | > 100 µM (inactive) | > 100 µM (inactive) | > 100 µM (inactive) |  | 73.1 µM (inactive)
7 | C[B@@-]1(c2ccc(C(F)(F)F)cc2)N[C@@H](Cc2ccccc2)C(=O)O1 | > 100 µM (inactive) | > 100 µM (inactive) | > 100 µM (inactive) | > 100 µM (inactive) | 31.8 µM (inactive) | > 100 µM (inactive) | > 100 µM (inactive) | > 100 µM (inactive) | > 100 µM (inactive) | > 100 µM (inactive) | > 100 µM (inactive) |  | > 100 µM (inactive) |  | > 100 µM (inactive) | > 100 µM (inactive) | > 100 µM (inactive) | 
8 | O=C1c2ccccc2-c2nc(/C=C/c3ccccc3)cc3c2c1nc1ccccc13 | 30.5 µM (inactive) | 26.4 µM (inactive) | 36.8 µM (inactive) | 68.4 µM (inactive) |  | 16.3 µM (inactive) | 3.47 µM (inactive) | 19.1 µM (inactive) | 69.2 µM (inactive) | 33.8 µM (inactive) | 0.265 µM (active) | 27.4 µM (inactive) | 23.1 µM (inactive) | 21.6 µM (inactive) | 2.32 µM (inactive) | 33.2 µM (inactive) | 24.4 µM (inactive) | 10.3 µM (inactive)
9 | COc1cccc(NC(=O)CC(=O)N2N=C(C)C(/N=N/c3ccc(C(=O)O)cc3)C2=O)c1 (stereo unspecified) | > 100 µM (inactive) | > 100 µM (inactive) | > 100 µM (inactive) | > 100 µM (inactive) | > 100 µM (inactive) | > 100 µM (inactive) | > 100 µM (inactive) | > 100 µM (inactive) |  | > 100 µM (inactive) | > 100 µM (inactive) | > 100 µM (inactive) | > 100 µM (inactive) | > 100 µM (inactive) | > 100 µM (inactive) | > 100 µM (inactive) | > 100 µM (inactive) | 43.1 µM (inactive)
